Measured values reported in patent US7019000B1, “Method of treating a disease condition caused or exacerbated by an HPV” (Institute of Molecular & Cell Biology, priority 1998, dated 2006).

Tests used:
[1] = system: SiHa, HeLa, 444 and HaCat cells; test: Microscopic observation of cell viability (FIG. 4); type: cell-based, human; conditions: E6-dependent cells (SiHa and HeLa) vs E6-independent cells (444 and HaCat)
Description: FIG. 4 photographically depicts viability of SiHa, HeLa, 444 and HaCat cells when treated with C16 compound.
Cell viability and the cytotoxic specificity for a number of other compounds of Formula (I) and (II) were also determined.

[2] = molecular target: T1, binding of E6 with E6AP and E6BP (Human papillomavirus type 16, UniProt P03126); parameters: species or system HPV-16
T1 construct: The full length HPV16 E6 gene was amplified via polymerase chain reaction and cloned in the vector pGeX4T2; made in house; host or cells: E. coli strain AB1899
Description: BIACORE allows real time analysis of bimolecular interactions without the need for isotopic or enzymatic labelling. BIACORE technology is based on the optical surface plasmon resonance (SPR), a technique that allows for detecting small changes in the refractive index on the surface of a thin gold film coated with a dextran matrix. Typically, one of the binding partners (termed the ligand) is covalently linked to the dextran matrix, while the other partner (termed the analyte) is introduced in a flow passing over the surface. The change in refractive index resulting from the interaction of the molecules is expressed in resonance units (RU): a SPR response of 1000 RU corresponds to a change of the surface concentration of the analyte of 1 ng protein/mm^2. GST-E6AP and GST-E6BP were used as ligands and GSTE6 was used as the analyte. […] Further controls included using the dextran matrix alone or GST as the ligand.
Binding of GST-E6 to GST-E6BP, GST-E6AP and GST was monitored by surface plasmon resonance (SPR) on a BIACORE 2000 machine (Biacore AB, Uppsala, Sweden). […] Typically 6000–10000 RU of GST, E6BP and E6AP were immobilized on three difference flowcells. Aliquots of purified HPV-16 GST-E6 (7 μM in 10 mM GSH, 50 mM Tris/PBS buffer, pH 8.2) were incubated with either 400 μM compound, or 5 mM EDTA, or 0.6% (170 mM) H2O2 for 2 hrs at room temperature. Then 10 μl of sample was injected at 1 μl/min over the three immobilized ligands using the sequential flow mode. The interactions between GST-E6 and ligands were monitored by the change of resonance signal in arbitrary units (RU).

[3] = system: HPV containing cell lines as HeLa, SiHa and Caski, compared to HPV-negative cell lines MCF7, HEPG2, (HaCat, HT3, 444); test: Cell viability (WST1 assay), panel of HPV-positive and HPV-negative cell lines; type: cell-based, human
Description: Zinc finger proteins are required for maintenance of cell viability. Preferably, the compounds for use in the present invention are specific in their ability to affect the viability of MPV containing cells, with little or no cytotoxic effects on the cellular functioning of healthy non-MPV containing cells. The viability of MPV-infected cells (and non infected cells) in the presence of compounds of Formulae (I) or (II) can be measured by incubating with the tetrazolium salt WST1 (Roche Molecular Biochemicals, Manneheim Germany) and measuring the absorption readings thereof (WST1 assay).
All cell lines were obtained from the American Type Culture Collection (Manassas, Va.) unless otherwise noted. SiHa (human cervical epithelial tumor line, HPV16-positive), CaSki (human cervical epithelial tumor line, HPV16-positive), HaCat (immortalized human skin epithelial cell line, HPV-negative), HeLa (human cervical epithelial tumor line, HPV18-positive), 444 (hybrid of HeLa and fibroblast, HPV18-positive) obtained from Eric Stanbridge (Universitv of California, Irvine), MCF7 (human mammary epithelial tumor cell line, HPV-negative), HT3 (human cervical epithelial tumor cell line, HPV-negative) was obtained from the German Cancer Research Institute/DKFZ-Heidelberg, and HepG2, (human liver epithelial tumor cell line, HPV-negative), were grown in Dulbecco's modified Eagle medium (DMEM) supplemented with 10% fetal calf serum, 100 U penicillin and 1000 U streptomycin. Cells were allowed to attach to the surface of microwell dishes overnight and subsequently, incubated with medium containing the zinc ejecting compounds at the concentrations (10–100 μM). Viability of the cells was scored by measuring the absorption of the tetrazolium salt WST1 (Roche Molecular Biochemicals, Mannheim, Germany) in an Elisa-plate reader (Tecan, Salzburg, Austria) at a wavelength of 450 nm and a reference wavelength of 630 nm.
A total of 10 000 cells per well were plated on 24 well plates, after attachment overnight, they were treated 3 times in 3 days with C16 at 10 μM and 50 μM. The activity of C16 was also compared with that of C4 (azodicarbonamide) which causes ejection of zinc from HIV-1 NCp7 and is currently used in clinical trials for the treatment of AIDS.

T1 sequence (P03126 whole entry): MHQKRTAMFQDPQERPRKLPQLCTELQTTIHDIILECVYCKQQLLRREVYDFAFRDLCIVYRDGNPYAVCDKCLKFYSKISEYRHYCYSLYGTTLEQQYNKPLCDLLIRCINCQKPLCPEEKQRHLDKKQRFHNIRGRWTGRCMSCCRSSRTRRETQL

Compound: C1CN(SSN2CCOCC2)CCO1 [Compound C16]
- microscopic observation of cells [1]: differential effect
- inhibitory activity for E6 binding to both E6BP and E6AP (BIACORE) [2]: inhibitory activity for E6 binding to both E6BP and E6AP
- BIACORE (E6BP/E6AP) ([2]; 400 μM compound, 2 hrs at room temperature, GST-E6 7 μM in 10 mM GSH): + (compound interferes in binding of E6 with E6AP and E6BP, binding is less than 50% of the corresponding E6-DMSO value.)
- effective concentration in cell viability assays [3]: 50 µM
- WST1 ([3]; 50 μM in cell culture): +
- WST1-spec ([3]; 50 μM, HPV containing vs HPV-negative cell lines): +
